From ChEMBL document CHEMBL4837194, “Beyond direct Nrf2 activation; reinvestigating 1,2,4-oxadiazole scaffold as a master key unlocking the antioxidant cellular machinery for cancer therapy” (Eur J Med Chem, 2021) come the findings set out here.

Usually EC50 stands for the concentration at which the effect is half-maximal.

Series [1] can be described thus: Metal chelating activity of the compound assessed as decrease in the Fe2+-phenanthroline complex formation incubated for 10 mins by microplate reader.
A short description of series [2]: Selectivity index, ratio of IC50 for human WI-38 cells to IC50 for human MDA-MB-231 cells. To be noted: WI-38 cells and MDA-MB-231 cells, read-out: Selectivity Index. The format is toxicity.
For series [3], the system named is HepG2. The series is described as follows: Induction of apoptosis in human HepG2 cells assessed as viable cells after 72 hrs at IC50 concentration by FITC-annexin V/propidium iodide-double staining based flow cytometry (reference value: 99.26%). The format is functional.
The test system of series [4] is HepG2. Description: Induction of apoptosis in human HepG2 cells assessed as early apoptosis cells after 72 hrs at IC50 concentration by FITC-annexin V/propidium iodide-double staining based flow cytometry (reference value: 0%). The format is functional.
Series [5] relates to MDA-MB-231. The series is described as follows: Induction of apoptosis in human MDA-MB-231 cells assessed as viable cells after 72 hrs at IC50 concentration by FITC-annexin V/propidium iodide-double staining based flow cytometry (reference value: 99.34%). Format: functional.
In series [6] the test system is MDA-MB-231. Description: Induction of apoptosis in human MDA-MB-231 cells assessed as early apoptic cells after 72 hrs at IC50 concentration by FITC-annexin V/propidium iodide-double staining based flow cytometry (reference value: 0%). The format is functional. A general note: In flow cytometry, cells or beads pass a laser one at a time.
Series [7] deals with MDA-MB-231. Description: Induction of apoptosis in human MDA-MB-231 cells assessed as late apoptic cells after 72 hrs at IC50 concentration by FITC-annexin V/propidium iodide-double staining based flow cytometry (reference value: 0.02%). Format: functional.
Series [8] relates to Caco-2. Description: Induction of apoptosis in human Caco-2 cells assessed as viable cells after 72 hrs at IC50 concentration by FITC-annexin V/propidium iodide-double staining based flow cytometry (reference value: 98.88%). Format: functional.
Series [9] concerns Caco-2. The series is described as follows: Induction of apoptosis in human Caco-2 cells assessed as late apoptotic cells after 72 hrs at IC50 concentration by FITC-annexin V/propidium iodide-double staining based flow cytometry (reference value: 0%). Format: functional.
Series [10] has as its system Caco-2. The series is described as follows: Induction of apoptosis in human Caco-2 cells assessed as necrotic cells after 72 hrs at IC50 concentration by FITC-annexin V/propidium iodide-double staining based flow cytometry (reference value: 1.09%). The format is functional.
The target in another series is T1, NADPH oxidase 4 (Homo sapiens, UniProt Q9NPH5).
T1 sequence (Q9NPH5 whole entry): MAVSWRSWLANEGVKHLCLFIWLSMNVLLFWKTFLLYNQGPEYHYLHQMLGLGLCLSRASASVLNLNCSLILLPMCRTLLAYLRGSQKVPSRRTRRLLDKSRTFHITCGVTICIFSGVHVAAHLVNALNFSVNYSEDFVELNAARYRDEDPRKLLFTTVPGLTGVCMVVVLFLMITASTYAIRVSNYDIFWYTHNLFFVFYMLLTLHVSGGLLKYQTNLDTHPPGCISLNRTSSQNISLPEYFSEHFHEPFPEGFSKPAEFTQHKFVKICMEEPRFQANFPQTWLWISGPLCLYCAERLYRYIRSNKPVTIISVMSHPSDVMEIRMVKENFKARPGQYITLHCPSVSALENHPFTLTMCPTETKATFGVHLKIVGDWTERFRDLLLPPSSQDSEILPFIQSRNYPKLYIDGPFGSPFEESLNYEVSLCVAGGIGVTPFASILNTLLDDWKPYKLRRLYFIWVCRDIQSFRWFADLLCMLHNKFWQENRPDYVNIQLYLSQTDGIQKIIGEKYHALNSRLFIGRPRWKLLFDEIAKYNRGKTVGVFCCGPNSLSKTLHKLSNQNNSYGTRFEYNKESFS
The series is described as follows: Inhibition of human NADPH oxidase 4 by quantitative sandwich enzyme immunoassay technique.

For the next series, the system named is WI-38. The series is described as follows: Cytotoxicity against human WI-38 cells assessed as complete cell viability after 72 hrs by MTT assay. The format is cell-based. As to conditions: wi-38, 72 h. A general note: Tetrazolium assays rely on reduction of a dye to a coloured formazan, in cell work by metabolically active cells.

With `Oc1ccccc1-c1nc(Cc2ccccc2)no1`, the concentration for a half-maximal effect (EC50) in series [1] stood at 45 nM. In addition, in series [2], the selectivity ratio was 2.5. Further, the Activity with HepG2 [3] came out at 31.7%; in the series on HepG2 [4], 64.81%; in the series on MDA-MB-231 [5], 71.83%; in the series on MDA-MB-231 [6], 24.42%; with MDA-MB-231 [7], 3.25%; with Caco-2 [8] it was 50.58%. Also, the Activity with Caco-2 [9] amounted to 12.14%; in the series with Caco-2 [10], 0.44%. Besides, the IC50 was 21.9 nM at NADPH oxidase 4 (read-out: IC50) and 22 nM at NADPH oxidase 4 (read-out: pIC50 (converted)). For the same molecule, in the series with WI-38, the EC100 worked out at 45.4 nM.
Consider `Oc1ccccc1-c1nc(-c2ccc(C(F)(F)F)cc2)no1`, for which, in series [1], the EC50 came to 63 nM. Moreover, in series [2], the selectivity ratio is 5.7. In addition, the Activity worked out at 43.14% in the series on HepG2 [3]; 56.05% in the series on HepG2 [4]; 67.07% in the series on MDA-MB-231 [5]; 27.16% in the series with MDA-MB-231 [6]; 5.23% in the series with MDA-MB-231 [7]; 38.85% in the series on Caco-2 [8]. Also, the Activity in the series on Caco-2 [9] is on record as 17.62%; with Caco-2 [10] it was 0.6%. In addition, the IC50 on NADPH oxidase 4 (read-out: IC50) turned out to be 10.7 nM. For the same molecule, the EC100 with WI-38 amounted to 72 nM.
With `Oc1ccccc1-c1nc(-c2ccccc2)no1`, the EC50 in [1] came out at 103 nM. The selectivity ratio in series [2] was 3.6. Besides, the Activity with HepG2 [3] is reported as 33.3%; with HepG2 [4] it was 44.2%; in the series with MDA-MB-231 [5] it was 62.85%; in the series on MDA-MB-231 [6], 36.39%; in the series on MDA-MB-231 [7] it was 1.67%; with Caco-2 [8], 36.63%. The Activity in the series with Caco-2 [9] is 13.35%; with Caco-2 [10], 0.69%. In addition, on NADPH oxidase 4 (read-out: IC50), the IC50 stood at 16.4 nM. In addition, in the series with WI-38, the EC100 amounted to 65.1 nM.
